From US20060293227A1, “Cosmetic compositions and methods using transforming growth factor-beta mimics” (priority 2005, published 2006)
Where no end group is shown, it is not given here. [ ]: non-standard residue; d: D form. NMeA = CN[C@@H](C)C(=O)O; Abu = CC[C@H](N)C(=O)O; Aib = CC(C)(N)C(=O)O

Tests used:
[1] = test system: Mv-1-Lu mink lung epithelial cells; assay: Inhibition of DNA synthesis ([3H]thymidine incorporation) of Mv-1-Lu mink lung epithelial cells; assay type: cell-based; conditions: for Inhib by new peptide/Inhib by cytomodulin: 3H-thymidine incorporation, MV-1-Lu cells, cytomodulin at same concentration; for 3H-Radioactivity / % Inhibition of incorporation of 3H-thymidine: MV-1 Lu cells; for Inhibition of DNA synthesis / proliferation of Mv-1-Lu cells (in words): thymidine incorporation, cytomodulin at 10^-9 to 10^-6 M
Description: The effect of TGF-β and cytomodulin were evaluated by determining the rate of […] incorporation into total acid-insoluble DNA and cell number. See generally, Sampath et al., J. Biol. Chem., 267, pp. 20352-20362 (1992). DNA synthesis rates were determined in triplicate cultures after 24 hour treatment with various concentrations (10^−9 M to 10^−6 M) of either TGF-β or cytomodulin (which was synthesized by the Merrifield method) by adding [methyl-^3H]thymidine (2uCi/ml, 80 Ci/mmol) for 6 hours before the termination of the culture. Incorporation was terminated by aspiration of the medium, and after washing three times with phosphate-buffered saline, the trichloroacetic acid (10%)-precipitated radioactive DNA was extracted with 1.0% (w/v) sodium dodecyl sulfate, 0.1 M NaOH and quantitated by liquid scintillation counting. For cell number determination, 1×10^5 cells were plated in flasks in MEM containing 10% FBS, and after 24 hours, the growth medium was replaced with serum-free medium containing various conceptions of TGF-β and cytomodulin. Triplicate cultures were harvested every 24 hours for the duration of 7 days, and the cell number was determined by counting cells released by trypsin digestion in a fixed volume hemacytometer.
The numbers shown at the various concentration are the ratio of the inhibition rate of the peptide being tested over the inhibition rate of cytomodulin (SEQ ID NO: 1) at the same concentration.
Tests for bioactivity were conducted as described above for DNA inhibition. In summary, the cytomodulin analogs listed in Table 3 were all found active as agonists and thus, as defined herein, are considered TGF-β mimics.

eyelids = test system: eyelids; design: species or system human; conditions: in vivo
Source text: A person, applied a lotion comprising cytomodulin (SEQ ID NO: 1) at a concentration of about 0.001%, to their eyelids twice per week for 2 months.

skin [2] = test system: skin; design: species or system human; conditions: in vivo
Source text: A person, of light complexion, applied a lotion comprising cytomodulin (SEQ ID NO: 1) at a concentration of about 0.001%, in EUCERIN™, to one side of their face a at a frequency of 1-2 times per week, typically at night before sleep, leaving uncovered while leaving the other side of their face without application of the TGF-β lotion. […] For example, crows feet became more shallow and the skin and face looked fuller and smoother. Color and skin tone became more youthful in appearance. […] After 18 days of treatment, the difference in appearance between the treated and untreated sides of the face was noticeable enough that the subject began to apply the topical composition to the entire face.
The same subject applied the CM-1 lotion to the back of one hand daily, while leaving the back of the other hand untreated. The treatment continued for several weeks.

skin [3] = test system: skin; design: species or system human; conditions: in vivo; remark: listed apart in the source
Source text: A person, with very dry, wind-burnt skin, many fine lines, and the beginning of wrinkles, applied a lotion comprising cytomodulin (SEQ ID NO: 1) at a concentration of about 0.001% on left side of their face only, three days per week. […] Within 3 weeks there was a a noticeable difference between the two sides of the face, with the right side having more fine lines appearing much drier and weather-worn than the left (treated) side. […] The subject stopped application after 3 months because of the difference in the appearance of the two side of the face A person applied a lotion comprising cytomodulin (SEQ ID NO: 1) at a concentration of about 0.001% on right side of their neck only, daily. […] The right side of the neck is noticeably different than the left side of the neck. […] A person with noticebly wrinkled and thickened skin on the neck applied a lotion comprising cytomodulin (SEQ ID NO: 1) at a concentration of about 0.001% to their neck once every four days. The subject also used Lancome makeup with sunscreen and Oil of Olay moisturizer for sensitive skin.

human dermal fibroblasts = assay: Expression of type I collagen, TGF-β and collagenase in human dermal fibroblasts; assay type: cell-based; conditions: for Expression of TGF-β / Expression of collagenase: human dermal fibroblasts; for Expression of type I collagen: human dermal fibroblasts (primary cultures of neo-natal cells for cytomodulin)
NRK-49 F fibroblasts [4] = assay: Growth and colony formation by NRK-49 F fibroblasts in soft agar; assay type: cell-based; conditions: 100 nM in Example 2, with EGF and PDGF
Description: The original assay for TGF-β, the ability to promote anchorage independent growth of normal fibroblasts is still one of the hallmarks of TGF-β activity. NRK-49 F fibroblasts were grown at 37° C. in DEM supplemented with 10% fetal calf serum. […] To this, either 100 nM TGF-β (positive control) or 100 nM cytomodulin was added. NRK49 F fibroblasts (5×10^4 cells/mi) were mixed with 0.3% agar were plated on the bottom of 35 mm culture dishes. Colony formation was observed starting on day 3 of culture.

TGF-β activity = assay: TGF-β like activity, overall statement from the assays used; assay type: cell-based; conditions: by the assays used
[5] = test system: human osteogenic sarcoma (HOS) cell line; assay: Expression of type I collagen, TGF-β, alkaline phosphatase and osteonectin in HOS cells; assay type: cell-based
NRK-49 F fibroblasts [6] = conditions: literature statement (Massagu, J. Biol. Chem. 1984); cited from earlier work

Substance: A-N-V-A-E-K (ANVAEK) [SEQ ID NO: 15]
- Inhib by new peptide/Inhib by cytomodulin ([1]; concentration 10 nM): 0.80
- Inhib by new peptide/Inhib by cytomodulin ([1]; concentration 100 nM): 1.00

Substance: ANVAENA [cytomodulin, Ala-Asn-Val-Ala-Glu-Asn-Ala]
- Adverse effects (eyelids): No adverse effects
- Negative effects of application (skin [2]): No negative effects
- Accidental contact of the lotion with the eyes (skin [3]): no apparent problem or irritation
- Adverse effects (skin [3]): No adverse effects
- Adverse effects (subject's report) (skin [3]): no adverse effects

Substance: L-(Abu)-A-E-A-K (L[Abu]AEAK) [SEQ ID NO: 6]
- 3H-Radioactivity ([1]; peptide 1 nM): 2.02 10^3 dpm
- % Inhibition of incorporation of 3H-thymidine ([1]; peptide 1 nM): 33%
- 3H-Radioactivity ([1]; peptide 5 nM): 1.97 10^3 dpm
- % Inhibition of incorporation of 3H-thymidine ([1]; peptide 5 nM): 35%

Substance: L-(Aib)-A-E-A-K (L[Aib]AEAK) [SEQ ID NO: 4]
- 3H-Radioactivity ([1]; peptide 5 nM): 2.31 10^3 dpm
- % Inhibition of incorporation of 3H-thymidine ([1]; peptide 5 nM): 35%
- 3H-Radioactivity ([1]; peptide 50 nM): 1.94 10^3 dpm
- % Inhibition of incorporation of 3H-thymidine ([1]; peptide 50 nM): 46%
- 3H-Radioactivity ([1]; peptide 100 nM): 1.44 10^3 dpm
- % Inhibition of incorporation of 3H-thymidine ([1]; peptide 100 nM): 60%
- 3H-Radioactivity ([1]; peptide 500 nM): 1.61 10^3 dpm
- % Inhibition of incorporation of 3H-thymidine ([1]; peptide 500 nM): 55%
- % Inhibition of incorporation of 3H-thymidine ([1]; peptide 1 mM (so in the source)): 27%
- 3H-Radioactivity ([1]; peptide 1 mM (so in the source), control without peptide 3.57): 2.60 10^3 dpm

Substance: L-I-(Nme-A)-E-A-K (LI[NMeA]EAK) [SEQ ID NO: 5]
- 3H-Radioactivity ([1]; peptide 1 nM): 1.61 10^3 dpm
- % Inhibition of incorporation of 3H-thymidine ([1]; peptide 1 nM): 47%
- 3H-Radioactivity ([1]; peptide 5 nM): 1.76 10^3 dpm
- % Inhibition of incorporation of 3H-thymidine ([1]; peptide 5 nM): 42%
- 3H-Radioactivity ([1]; peptide 50 nM): 1.60 10^3 dpm
- % Inhibition of incorporation of 3H-thymidine ([1]; peptide 50 nM): 41%
- 3H-Radioactivity ([1]; peptide 100 nM): 1.81 10^3 dpm
- % Inhibition of incorporation of 3H-thymidine ([1]; peptide 100 nM): 40%
- 3H-Radioactivity ([1]; peptide 500 nM): 1.42 10^3 dpm
- % Inhibition of incorporation of 3H-thymidine ([1]; peptide 500 nM): 53%

Substance: L-I-A-D-A-K (LIADAK) [SEQ ID NO: 9]
- Inhib by new peptide/Inhib by cytomodulin ([1]; concentration 1 nM): 0.45
- Inhib by new peptide/Inhib by cytomodulin ([1]; concentration 10 nM): 0.87
- Inhib by new peptide/Inhib by cytomodulin ([1]; concentration 100 nM): 1.14
- Inhib by new peptide/Inhib by cytomodulin ([1]; concentration 1000 nM): 1.25

Substance: L-I-A-E-A-A (LIAEAA) [SEQ ID NO: 11]
- Inhib by new peptide/Inhib by cytomodulin ([1]; concentration 1 nM): 1.16
- Inhib by new peptide/Inhib by cytomodulin ([1]; concentration 10 nM): 1.00
- Inhib by new peptide/Inhib by cytomodulin ([1]; concentration 100 nM): 1.17
- Inhib by new peptide/Inhib by cytomodulin ([1]; concentration 1000 nM): 1.85

Substance: L-I-A-E-A-K (LIAEAK) [L2]
- Expression of TGF-β (human dermal fibroblasts): increased the expression
- Expression of collagenase (human dermal fibroblasts): decreased the expression
- Expression of type I collagen (human dermal fibroblasts): increased the expression
- Growth and colony formation in soft agar (NRK-49 F fibroblasts [4]): promoted the growth
- TGF-β like activity (overall) (TGF-β activity): at least as much TGF-β like activity as cytomodulin
- Expression of TGF-β [5]: increased the expression
- Expression of alkaline phosphatase [5]: increased the expression
- Expression of type I collagen [5]: increased the expression
- Inhibition of DNA synthesis / proliferation of Mv-1-Lu cells (in words) [1]: inhibited the proliferation

Substance: L-I-A-G-E-G (LIAGEG) [SEQ ID NO: 14]
- Inhib by new peptide/Inhib by cytomodulin ([1]; concentration 1 nM): 0.66
- Inhib by new peptide/Inhib by cytomodulin ([1]; concentration 10 nM): 0.85
- Inhib by new peptide/Inhib by cytomodulin ([1]; concentration 100 nM): 1.41
- Inhib by new peptide/Inhib by cytomodulin ([1]; concentration 1000 nM): 1.88

Substance: L-I-A-G-G-E (LIAGGE) [SEQ ID NO: 13]
- Inhib by new peptide/Inhib by cytomodulin ([1]; concentration 1 nM): 1.10
- Inhib by new peptide/Inhib by cytomodulin ([1]; concentration 10 nM): 1.33
- Inhib by new peptide/Inhib by cytomodulin ([1]; concentration 100 nM): 1.45
- Inhib by new peptide/Inhib by cytomodulin ([1]; concentration 1000 nM): 1.90

Substance: L-I-A-K-G-K (LIAKGK) [SEQ ID NO: 16]
- Inhib by new peptide/Inhib by cytomodulin ([1]; concentration 10 nM): 0.65
- Inhib by new peptide/Inhib by cytomodulin ([1]; concentration 100 nM): 0.67

Substance: L-I-A-N-A-K (LIANAK) [SEQ ID NO: 10]
- Inhib by new peptide/Inhib by cytomodulin ([1]; concentration 1 nM): 1.70
- Inhib by new peptide/Inhib by cytomodulin ([1]; concentration 10 nM): 2.00
- Inhib by new peptide/Inhib by cytomodulin ([1]; concentration 100 nM): 1.43
- Inhib by new peptide/Inhib by cytomodulin ([1]; concentration 1000 nM): 3.05

Substance: L-I-A-P-E-A (LIAPEA) [L1]
- Expression of TGF-β (human dermal fibroblasts): increased the expression
- Expression of collagenase (human dermal fibroblasts): decreased the expression
- Expression of type I collagen (human dermal fibroblasts): increased the expression
- Growth and colony formation in soft agar (NRK-49 F fibroblasts [4]): promoted the growth
- TGF-β like activity (overall) (TGF-β activity): at least as much TGF-β like activity as cytomodulin
- Expression of TGF-β [5]: increased the expression
- Expression of alkaline phosphatase [5]: increased the expression
- Expression of type I collagen [5]: increased the expression
- Inhibition of DNA synthesis / proliferation of Mv-1-Lu cells (in words) [1]: inhibited the proliferation

Substance: L-I-A-Q-A-K (LIAQAK) [SEQ ID NO: 12]
- Inhib by new peptide/Inhib by cytomodulin ([1]; concentration 1 nM): 0.90
- Inhib by new peptide/Inhib by cytomodulin ([1]; concentration 10 nM): 1.10
- Inhib by new peptide/Inhib by cytomodulin ([1]; concentration 100 nM): 0.80
- Inhib by new peptide/Inhib by cytomodulin ([1]; concentration 1000 nM): 1.56

Substance: TGF-β
- Growth and colony formation in soft agar (NRK-49 F fibroblasts [4]): grew colonies
- Colony formation in the absence of EGF and PDGF (NRK-49 F fibroblasts [6]): does not induce colony formation
